{"source": "patent US12077503B2", "about": "“Substituted cyclic amides and their use as herbicides” (FMC CORPORATION, priority 2015, dated 2024)", "type_in_all_cases": "in vivo", "key": {"[1]": {"system": "ryegrass, Italian (Italian ryegrass, Lolium multiflorum)", "assay": "Test A preemergence", "details": "Lolium multiflorum, pre-emergence, 240 h, 0 to 100 scale where 0 is no effect and 100 is complete control, read-out: Ryegrass, Italian plant response rating", "how_it_was_run": "(§1)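 Seeds sprayed preemergence with a directed soil spray, or plants at 2 to 10 cm height and one- to two-leaf stage sprayed postemergence, with test chemicals in a non-phytotoxic solvent mixture containing surfactant, in loam soil–sand blend. Injury rated visually against untreated controls after about 10 d in greenhouse, 0 (no effect) to 100 (complete control).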"}, "[2]": {"system": "pigweed (Amaranthus retroflexus)", "assay": "Test A preemergence", "details": "Amaranthus retroflexus, pre-emergence, 240 h, 0 to 100 scale where 0 is no effect and 100 is complete control, read-out: Pigweed plant response rating"}, "[3]": {"system": "barnyardgrass (Echinochloa crus-galli)", "assay": "Test A preemergence", "details": "Echinochloa crus-galli, pre-emergence, 240 h, Preemergence", "how_it_was_run": "as §1"}, "[4]": {"system": "ragweed (common ragweed, Ambrosia elatior)", "assay": "Test A preemergence", "details": "Ambrosia artemisiifolia, pre-emergence, 240 h, 0 to 100 scale where 0 is no effect and 100 is complete control, read-out: Ragweed plant response rating", "how_it_was_run": "as §1"}, "[5]": {"system": "Kochia (Kochia scoparia)", "assay": "Test A preemergence", "details": "Bassia scoparia, pre-emergence, 240 h, 0 to 100 scale where 0 is no effect and 100 is complete control, read-out: Kochia plant response rating", "how_it_was_run": "as §1"}, "[6]": {"system": "giant foxtail (Setaria faberii)", "assay": "Test A preemergence", "details": "Setaria faberi, pre-emergence, 240 h, Preemergence", "how_it_was_run": "as §1"}, "[7]": {"system": "ducksalad (Heteranthera limosa)", "assay": "Test B flooded paddy test", "details": "Heteranthera limosa, 250 g ai/ha, Flood; 0 to 100 scale where 0 is no effect and 100 is complete control; read-out: Ducksalad plant response rating", "how_it_was_run": "(§2)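 Plants at 2-leaf stage flooded to 3 cm above soil, with compounds applied directly to paddy water and that depth maintained. Plants kept in greenhouse 13–15 d. Visual rating versus controls on a 0 (no effect) to 100 (complete control) scale.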"}, "[8]": {"system": "rice (Oryra sativa)", "assay": "Test B flooded paddy test", "details": "Oryza sativa, 250 g ai/ha, Flood; 0 to 100 scale where 0 is no effect and 100 is complete control; read-out: Rice plant response rating", "how_it_was_run": "as §2"}, "[9]": {"system": "sedge, umbrella (small-flower umbrella sedge, Cyperus difformis)", "assay": "Test B flooded paddy test", "details": "Cyperus difformis, 250 g ai/ha, Flood; 0 to 100 scale where 0 is no effect and 100 is complete control; read-out: Sedge, Umbrella plant response rating", "how_it_was_run": "as §2"}, "[10]": {"system": "barnyardgrass (Echinochloa crus-galli)", "assay": "Test B flooded paddy test", "details": "Echinochloa crus-galli, 250 g ai/ha, Flood; 0 to 100 scale where 0 is no effect and 100 is complete control; read-out: Barnyardgrass plant response rating", "how_it_was_run": "as §2"}, "[11]": {"system": "ryegrass, Italian (Italian ryegrass, Lolium multiflorum)", "assay": "Test A postemergence", "details": "Lolium multiflorum, post-emergence, 240 h", "how_it_was_run": "as §1"}, "[12]": {"system": "wheat (Triticum aestivum)", "assay": "Test A postemergence", "details": "Triticum aestivum, post-emergence, 240 h", "how_it_was_run": "as §1"}, "[13]": {"system": "Galium (catchweed bedstraw, Galium aparine)", "assay": "Test A postemergence", "details": "Galium, post-emergence, 240 h", "how_it_was_run": "as §1"}, "[14]": {"system": "pigweed (Amaranthus retroflexus)", "assay": "Test A postemergence", "details": "Amaranthus retroflexus, post-emergence, 240 h", "how_it_was_run": "as §1"}, "[15]": {"system": "barnyardgrass (Echinochloa crus-galli)", "assay": "Test A postemergence", "details": "Echinochloa crus-galli, post-emergence, 240 h", "how_it_was_run": "as §1"}, "[16]": {"system": "blackgrass (Alopecurus myosuroides)", "assay": "Test A postemergence", "details": "Alopecurus myosuroides, post-emergence, 240 h", "how_it_was_run": "as §1"}, "[17]": {"system": "ragweed (common ragweed, Ambrosia elatior)", "assay": "Test A postemergence", "details": "Ambrosia artemisiifolia, post-emergence, 240 h", "how_it_was_run": "as §1"}, "[18]": {"system": "Kochia (Kochia scoparia)", "assay": "Test A postemergence", "details": "Bassia scoparia, post-emergence, 240 h", "how_it_was_run": "as §1"}, "[19]": {"system": "giant foxtail (Setaria faberii)", "assay": "Test A postemergence", "details": "Setaria faberi, post-emergence, 240 h", "how_it_was_run": "as §1"}, "[20]": {"system": "corn (Zea mays)", "assay": "Test A postemergence", "details": "Zea mays, post-emergence, 240 h", "how_it_was_run": "as §1"}, "[21]": {"details": "125 g ai/ha, preemergence, approx. 10 d"}}}
{"smiles": "Cc1ccncc1NC(=O)[C@H]1C(=O)N(C)C[C@@H]1c1ccc(C(F)(F)F)cc1", "note": "[Compound 1068]", "values": [{"measurement": "pest or weed control at 31 g/ha", "setting": "[1]; 31 g ai/ha, Preemergence", "value": 0, "unit": "%"}, {"measurement": "pest or weed control at 125 g/ha", "setting": "[1]; [21]", "value": 0, "unit": "%"}, {"measurement": "pest or weed control at 31 g/ha", "setting": "[2]; 31 g ai/ha, Preemergence", "value": 0, "unit": "%"}, {"measurement": "pest or weed control at 125 g/ha", "setting": "[2]; [21]", "value": 0, "unit": "%"}, {"measurement": "pest or weed control at 31 g/ha", "setting": "[3]; 31 g ai/ha, 0 to 100 scale where 0 is no effect and 100 is complete control, read-out: Barnyardgrass plant response rating", "value": 0, "unit": "%"}, {"measurement": "pest or weed control at 125 g/ha", "setting": "[3]; 125 g ai/ha, visual injury rating after approximately 10 d, read-out: Barnyardgrass plant response rating (0 to 100 scale, 0 is no effect, 100 is complete control)", "value": 0, "unit": "%"}, {"measurement": "pest or weed control at 31 g/ha", "setting": "[4]; 31 g ai/ha, Preemergence", "value": 0, "unit": "%"}, {"measurement": "pest or weed control at 125 g/ha", "setting": "[4]; [21]", "value": 0, "unit": "%"}, {"measurement": "pest or weed control at 31 g/ha", "setting": "[5]; 31 g ai/ha, Preemergence", "value": 0, "unit": "%"}, {"measurement": "pest or weed control at 125 g/ha", "setting": "[5]; [21]", "value": 0, "unit": "%"}, {"measurement": "pest or weed control at 31 g/ha", "setting": "[6]; 31 g ai/ha, 0 to 100 scale where 0 is no effect and 100 is complete control, read-out: Foxtail, Giant plant response rating", "value": 0, "unit": "%"}, {"measurement": "pest or weed control at 125 g/ha", "setting": "[6]; 125 g ai/ha, visual injury rating after approximately 10 d, read-out: Foxtail, Giant plant response rating (0 to 100 scale, 0 is no effect, 100 is complete control)", "value": 0, "unit": "%"}, {"measurement": "pest or weed control at 250 g/ha", "setting": "[7]", "value": 90, "unit": "%"}, {"measurement": "pest or weed control at 250 g/ha", "setting": "[8]", "value": 0, "unit": "%"}, {"measurement": "pest or weed control at 250 g/ha", "setting": "[9]", "value": 0, "unit": "%"}, {"measurement": "pest or weed control at 250 g/ha", "setting": "[10]", "value": 0, "unit": "%"}, {"measurement": "pest or weed control at 125 g/ha", "setting": "[11]; 125 g ai/ha, postemergence, visual injury on 0 to 100 scale (0 no effect, 100 complete control), approx. 10 d, read-out: Ryegrass, Italian plant response rating", "value": 0, "unit": "%"}, {"measurement": "pest or weed control at 31 g/ha", "setting": "[11]; Postemergence, 31 g ai/ha, visual injury after approx. 10 d, 0 to 100 scale, 0 no effect, 100 complete control, read-out: Plant response rating, Ryegrass, Italian", "value": 0, "unit": "%"}, {"measurement": "plant injury at 125 g/ha", "setting": "[12]; 125 g ai/ha, postemergence, visual injury on 0 to 100 scale (0 no effect, 100 complete control), approx. 10 d, read-out: Wheat plant response rating", "value": 0, "unit": "%"}, {"measurement": "plant injury at 31 g/ha", "setting": "[12]; Postemergence, 31 g ai/ha, visual injury after approx. 10 d, 0 to 100 scale, 0 no effect, 100 complete control, read-out: Plant response rating, Wheat", "value": 0, "unit": "%"}, {"measurement": "pest or weed control at 125 g/ha", "setting": "[13]; 125 g ai/ha, postemergence, visual injury on 0 to 100 scale (0 no effect, 100 complete control), approx. 10 d, read-out: Galium plant response rating", "value": 0, "unit": "%"}, {"measurement": "pest or weed control at 31 g/ha", "setting": "[13]; Postemergence, 31 g ai/ha, visual injury after approx. 10 d, 0 to 100 scale, 0 no effect, 100 complete control, read-out: Plant response rating, Galium", "value": 0, "unit": "%"}, {"measurement": "pest or weed control at 125 g/ha", "setting": "[14]; 125 g ai/ha, postemergence, visual injury on 0 to 100 scale (0 no effect, 100 complete control), approx. 10 d, read-out: Pigweed plant response rating", "value": 0, "unit": "%"}, {"measurement": "pest or weed control at 31 g/ha", "setting": "[14]; Postemergence, 31 g ai/ha, visual injury after approx. 10 d, 0 to 100 scale, 0 no effect, 100 complete control, read-out: Plant response rating, Pigweed", "value": 0, "unit": "%"}, {"measurement": "pest or weed control at 125 g/ha", "setting": "[15]; 125 g ai/ha, postemergence, visual injury on 0 to 100 scale (0 no effect, 100 complete control), approx. 10 d, read-out: Barnyardgrass plant response rating", "value": 0, "unit": "%"}, {"measurement": "pest or weed control at 31 g/ha", "setting": "[15]; Postemergence, 31 g ai/ha, visual injury after approx. 10 d, 0 to 100 scale, 0 no effect, 100 complete control, read-out: Plant response rating, Barnyardgrass", "value": 0, "unit": "%"}, {"measurement": "pest or weed control at 125 g/ha", "setting": "[16]; 125 g ai/ha, postemergence, visual injury on 0 to 100 scale (0 no effect, 100 complete control), approx. 10 d, read-out: Blackgrass plant response rating", "value": 0, "unit": "%"}, {"measurement": "pest or weed control at 31 g/ha", "setting": "[16]; Postemergence, 31 g ai/ha, visual injury after approx. 10 d, 0 to 100 scale, 0 no effect, 100 complete control, read-out: Plant response rating, Blackgrass", "value": 0, "unit": "%"}, {"measurement": "pest or weed control at 125 g/ha", "setting": "[17]; 125 g ai/ha, postemergence, visual injury on 0 to 100 scale (0 no effect, 100 complete control), approx. 10 d, read-out: Ragweed plant response rating", "value": 0, "unit": "%"}, {"measurement": "pest or weed control at 31 g/ha", "setting": "[17]; Postemergence, 31 g ai/ha, visual injury after approx. 10 d, 0 to 100 scale, 0 no effect, 100 complete control, read-out: Plant response rating, Ragweed", "value": 0, "unit": "%"}, {"measurement": "pest or weed control at 125 g/ha", "setting": "[18]; 125 g ai/ha, postemergence, visual injury on 0 to 100 scale (0 no effect, 100 complete control), approx. 10 d, read-out: Kochia plant response rating", "value": 0, "unit": "%"}, {"measurement": "pest or weed control at 31 g/ha", "setting": "[18]; Postemergence, 31 g ai/ha, visual injury after approx. 10 d, 0 to 100 scale, 0 no effect, 100 complete control, read-out: Plant response rating, Kochia", "value": 0, "unit": "%"}, {"measurement": "pest or weed control at 125 g/ha", "setting": "[19]; 125 g ai/ha, postemergence, visual injury on 0 to 100 scale (0 no effect, 100 complete control), approx. 10 d, read-out: Foxtail, Giant plant response rating", "value": 0, "unit": "%"}, {"measurement": "pest or weed control at 31 g/ha", "setting": "[19]; Postemergence, 31 g ai/ha, visual injury after approx. 10 d, 0 to 100 scale, 0 no effect, 100 complete control, read-out: Plant response rating, Foxtail, Giant", "value": 0, "unit": "%"}, {"measurement": "plant injury at 125 g/ha", "setting": "[20]; 125 g ai/ha, postemergence, visual injury on 0 to 100 scale (0 no effect, 100 complete control), approx. 10 d, read-out: Corn plant response rating", "value": 0, "unit": "%"}, {"measurement": "Corn plant response rating (crop injury, 0 = no effect, 100 = complete kill) at 31 g/ha", "setting": "[20]; Postemergence, 31 g ai/ha, visual injury after approx. 10 d, 0 to 100 scale, 0 no effect, 100 complete control", "value": 0, "unit": "%"}]}
